Laboratory results from patent publication US4874526A, “Treatment of water” (Ciba-Geigy Corporation, priority 1981, dated 1989).
Read-outs that look alike come from different tables or passages of the source.

Experiments:
germs = assay: Survival rate of germs in circulation systems with cooling tower; details: 3 h, 20 ppm active ingredient, read-out: Survival rate of germs 3h after biocide addition
Procedure: The compounds below were tested in circulation systems, set up on a roof, and consisting of the following:
1. A plastic barrel having a volume of 113 liters.
2. A Siemens pump (21 liters/minute delivery at a delivery hight of 3 meters).
3. A cooling tower with Oreogn pine heartwood, oak, spruce, asbestos cement and PVC panels.
120-124 liters of make-up water were added daily to achieve a half-life in the system of about one day.
The systems were inoculated naturally with airborne dust, spores and pollen.
The systems were treated with compound to be tested on the first day then on day 7, day 21 and over 45 days. The number of germs/ml of water in the system is measured before and 3 hours after addition of the compound being tested.
The germ count was carried out by standard serial dilution and plating out on Agar nutrient and, afer incubation, counting the bacterial colonies present on the surface.
In each case the dosage of compound added was 20 ppm active ingredient.

[1] = Foaming in the cooling system (Example 6); type: physicochemical
mixed algal culture = assay: Algal growth inhibition (MIC), mixed algal culture (Example 5); type: cell-based
Procedure: (§1) The algae was diluted (1 to 200) in further algae medium and the phosphonium compounds added to give final concentrations of 1, 2.5, 3.4 and 6.8 ppm active ingredient. The algal suspensions were then incubated in a shaking water bath at 18° C., with a daily cycle of 14 hours light and 10 hours darkness. The suspensions were assessed visually for growth of algae and the Minimum Inhibition Concentration (MIC) was recorded as the lowest concentration of product at which there was no growth for each algal strain. A similar experiment was also carried out using a mixed algal culture including strains a to d together with the following strains:
In this experiment the concentrations of phosphonium compounds present were 2, 5, 7.5 and 10 ppm.

Chlorella vulgaris = assay: Algal growth inhibition (MIC), strain c (Example 5); type: cell-based
Procedure: (§2) Cultures of the following strains of algae were grown in algae nutrient medium over a period of 14 days:
as §1, with “strains: […]” for “strains:”

Tribonema aequale = assay: Algal growth inhibition (MIC), strain B (Example 7); type: cell-based
Procedure: as §1
(§3) The activity of the phosphonium compounds listed below against three strains of algae is determined according to the procedure set out in example 5.

Phormidium foveolarum = assay: Algal growth inhibition (MIC), strain b (Example 5); type: cell-based; details: Nodosilinea foveolarum
Procedure: as §2
(b) Phormidium foveolarum
as §1, with “strains: […]” for “strains:”

Scenedesmus spec. = assay: Algal growth inhibition (MIC), strain d (Example 5); type: cell-based
Procedure: as §2
as §1, with “strains: […]” for “strains:”

Scenedesmus obliquus = assay: Algal growth inhibition (MIC), strain A (Example 7); type: cell-based; details: Tetradesmus obliquus
Procedure: as §1, §3

[2] = Reduction of the surface tension of water (Example 6); type: physicochemical; details: distilled water 72.8 dynes/cm
Procedure: The effect of respective test compounds on the surface tension of water was also determined, the results being shown in the following Table:
Reduction of the surface tension.

Oscillatoria geminata = assay: Algal growth inhibition (MIC), strain a (Example 5); type: cell-based; details: Jaaginema geminatum
Procedure: as §2
(a) Oscillatoria geminata
as §1, with “strains: […]” for “strains:”

Haematococcus lacustris = assay: Algal growth inhibition (MIC), strain C (Example 7); type: cell-based
Procedure: as §1
The activity of the phosphonium compounds listed below against three strains of algae is determined according to the procedure set out in example 5. The three strains of algae are:
Haematococcus lacustris (C)

[3] = Standard Ross-Miles foam test; type: physicochemical; details: 0.05%; for foam production: compared with S or 22
[4] = Surface tension of dilute aqueous solutions (Example 2); type: physicochemical; details: FIG. 8, in comparison with 22
Procedure: The surface activity of the following compounds was measured by determining the surface tension of dilute aqueous solutions of the chemicals: […]

[5] = tested on: mixed culture of bacteria; assay: Minimum concentration required to kill a given number of organisms (MKC), mixed culture of slime-forming bacteria, 5 hours exposure; type: cell-based
Procedure: The effect of the number of organisms present on the biological activity of tri-n-butyl tetradecyl phosphonium chloride was compared with that for various quaternary ammonium compounds. This was done by measuring the MKC value i.e. the minimum concentration (expressed in ppm active ingredient) of chemical required to kill a given number or organisms. In the test carried out, a suspension of a mixed culture of bacteria containing the following slime-forming organisms:
Proteus vulgaris was diluted to give suspensions containing 10^6 /ml (A), 10^5 /ml (B) and 10^4 /ml (C) bacteria. These suspensions were then exposed to varying concentrations of the biocides for 5 hours and the MKC value measured.

algae = assay: Anti-algal effect, algae in general; type: cell-based; details: compared with triphenyl-dodecyl phosphonium chloride
From the text: The anti-algal effect of the respective test compounds was also examined. […] Thus, the compound of the invention when used in an amount of 1 ppm inhibited the algal strains chlorella vulgaris snd scenedesmus spec. (which strains are very significant strains in cooling systems) where 2, 5 or 10 ppm was required when using triphenyl-dodecyl phosphonium chloride.

[6] = read-out: MKC, A: 10^6/ml bacteria, ppm active ingredient
[7] = read-out: MKC, B: 10^5/ml bacteria, ppm active ingredient
[8] = read-out: MKC, C: 10^4/ml bacteria, ppm active ingredient

Row | Structure (SMILES) | viability at 20 ppm (germs; 0 d) | viability at 20 ppm (germs; 7 d) | viability at 20 ppm (germs; 21 d) | viability at 20 ppm (germs; >45 d) | MIC (mixed algal culture) | MIC (Tribonema aequale) | Surface tension ([2]; 5 mg/l) | Surface tension ([2]; 10 mg/l) | Surface tension ([2]; 15 mg/l) | Surface tension ([2]; 20 mg/l) | Surface tension ([2]; 30 mg/l) | MIC (Tribonema aequale; strain B, read-out: MIC) | MIC (Scenedesmus obliquus; strain A, read-out: MIC) | MIC (Haematococcus lacustris; strain C, read-out: MIC) | Foam Height ([3]; 1 minute) | Foam Height ([3]; 30 minutes) | Foam Height ([3]; 60 minutes) | foam production [3] | surface activity [4] | MBC [5, 6] | further results
1 | CCCCCCCCCCCC[P+](c1ccccc1)(c1ccccc1)c1ccccc1.[Cl-] [Triphenyl dodecyl phosphonium chloride, triphenyl dodecyl phosphonium chloride, reference compound] | 3% | 72% | 110% | 130% | 7.5 µg/mL | 3 µg/mL | 60.2 dynes/cm | 59.5 dynes/cm | 57.9 dynes/cm | 56.4 dynes/cm | 53.7 dynes/cm | – | – | – | – | – | – | – | – | – | foaming in the cooling system [1]: some foaming problems were encountered; MIC (Chlorella vulgaris): 2.5 µg/mL; MIC (Phormidium foveolarum): 1 µg/mL; MIC (Scenedesmus spec.): 3.4 µg/mL; MIC (Scenedesmus obliquus): 3 µg/mL; MIC (Oscillatoria geminata): 2.5 µg/mL; MIC (Haematococcus lacustris): 3 µg/mL
2 | CCCCCCCCCCCCCC[P+](CCCC)(CCCC)CCCC.[Br-] [tri-n-butyl tetradecyl phosphonium bromide] | – | – | – | – | – | – | – | – | – | – | – | 0.3 µg/mL | 2 µg/mL | 2 µg/mL | – | – | – | – | – | – | MIC (mixed algal culture; mixed culture, concentrations 2, 5, 7.5 and 10 ppm, read-out: MIC): 2 µg/mL; MIC (Chlorella vulgaris; strain c, 18° C., ppm active ingredient, read-out: MIC): 1 µg/mL; MIC (Phormidium foveolarum; strain b, 18° C., ppm active ingredient, read-out: MIC): 1 µg/mL; MIC (Scenedesmus spec.; strain d, 18° C., ppm active ingredient, read-out: MIC): 1 µg/mL; MIC (Oscillatoria geminata; strain a, 18° C., ppm active ingredient, read-out: MIC): 2.5 µg/mL
3 | CCCCCCCCCCCC[P+](CCCC)(CCCC)CCCC.[Cl-] [Tri-n-butyl dodecyl phosphonium chloride, tri-n-butyl dodecyl phosphonium chloride] | – | – | – | – | – | – | – | – | – | – | – | 1 µg/mL | 2 µg/mL | 1 µg/mL | 18 mm | 6 mm | 4 mm | much less foam than S or 22 | high surface activity | – | –
4 | CCCCCCCCCCCCCC[P+](c1ccccc1)(c1ccccc1)c1ccccc1.[Br-] [Triphenyl tetradecyl phosphonium bromide, reference compound] | – | – | – | – | – | – | – | – | – | – | – | 3 µg/mL | 6 µg/mL | 6 µg/mL | – | – | – | – | – | – | –
5 | CCCCCCCCCC[N+](C)(C)CCCCCCCCCC.[Cl-] [Dimethyl di-n-decyl ammonium chloride, dimethyl di-n-decyl ammonium chloride, reference compound] | – | – | – | – | – | – | – | – | – | – | – | – | – | – | 45 mm | 40 mm | 38 mm | – | – | 25 µg/mL | MBC [5, 7]: 25 µg/mL; MBC [5, 8]: 12.5 µg/mL
6 | CCCCCCCCCCCCCC[P+](CCCC)(CCCC)CCCC.[Cl-] [tri-n-butyl tetradecyl phosphonium chloride] | 1% | 9% | 6% | 8% | 5 µg/mL | 2 µg/mL | 52.9 dynes/cm | 48.8 dynes/cm | 47.1 dynes/cm | 45.6 dynes/cm | 42.3 dynes/cm | – | – | – | 33 mm | 19 mm | 10 mm | much less foam than S or 22 | high surface activity | 12.5 µg/mL | MBC [5, 7]: 12.5 µg/mL; MBC [5, 8]: 12.5 µg/mL; activity against algae (algae): more active against algae than triphenyl-dodecyl phosphonium chloride
